Laboratory results reported in paper PMC8797470, “Disruption of the pentraxin 3/CD44 interaction as an efficient therapy for triple‐negative breast cancers” (Clinical and Translational Medicine, 2022).
Ends that are not written are not given here.

Assays:
[1] = tested on: mCherry fluorescent-expressing 4T1 cells; test: Orthotopic allograft of mCherry 4T1 cells in BALB/c mice; assay type: in vivo, mouse; details: 40 mg/kg peptide every day, intraperitoneal
From the text: (§1) For the animal model, MB‐Luc2 cells were mixed with human BCAFs xenografts: 1 × 10^5 MB‐Luc2 were mixed with either 1 × 10^5 BCAFs carrying a control knockdown vector (shCtl‐BCAFs), or 1 × 10^5 BCAFs carrying a CEBPD knockdown vector (shCD‐BCAFs), or 1 × 10^5 BCAFs carrying a PTX3 knockdown vector (shP‐BCAFs). The cell mixtures were inoculated into the mammary fat pads of NOD‐SCID mice. In peptide treatment experiments, NOD‐SCID mice were orthotopically inoculated with 1 × 10^6 mCherry fluorescent‐expressing MDA‐MB‐231 cells into the mammary fat pad. Similarly, 5 × 10^5 mCherry fluorescent‐expressing 4T1 cells were orthotopically inoculated into BALB/c mice in the mammary fat pad. Once tumours reached to the mean of 50 mm^3, the mice were administered 40 mg/kg of peptides RI37, GI40, P2rdAD9 or P12rdGR9 every day by intraperitoneal injection. For paclitaxel treatment, 30 mg/kg of paclitaxel was administered to the experimental mice once a week. […] The images of in vivo bioluminescence and metastasis quantification of the lung and brain were analysed by a Xenogen IVISR Spectrum Noninvasive Quantitative Molecular Imaging System. […] After that, tumour volume was mathematically determined by using the standard formula: […], where l represents the length and w represents the width of the tumour. […] After, the number of nodules on the lung surface was measured. […]

[2] = tested on: mCherry fluorescent-expressing MDA-MB-231 cells; test: Orthotopic xenograft of mCherry MDA-MB-231 cells in NOD-SCID mice; assay type: in vivo, mouse; details: 40 mg/kg peptide every day, intraperitoneal
From the text: as §1

[3] = tested on: AKT, NF-κB and ERK1/2 activity in MDA-MB-231 cells; test: Western blot of PTX3-induced signalling; assay type: cell-based, human; details: with PTX3 treatment
From the text: Experimental cells were lysed with radioimmunoprecipitation assay buffer (RIPA) buffer. Specific antibodies including PTX3 (ab90806; Abcam), CEBPD (sc‐636; Santa Cruz Biotechnology), CD44 (GTX83114; GeneTex), α‐tubulin (T6199; Sigma), P84 (GTX70220; GeneTex), RAC1 (GTX100761; GeneTex), CDC42 (GTX100904; GeneTex), AKT (GTX121937; GeneTex), Phospho‐AKT (Ser473) (GTX128414; GeneTex), Phospho‐NF‐κB p65 (Ser536) (#93H1; Cell Signaling), RhoA (ab68826; Abcam), NF‐κB p65 (#3033; Cell Signaling), Phospho‐p38 MAPK (Thr180/Tyr182) (#9211; Cell Signaling), PTEN (ab32199; Abcam), p38 MAPK (#9212; Cell Signaling), Phospho‐SAPK/JNK (Thr183/Tyr185) (#4668; Cell Signaling), Phospho‐p70 S6 Kinase (Thr389) (MABS82; Millipore), Phospho‐PAK1 (Ser199/Ser204) (09‐258; Millipore), SAPK/JNK (#9252; Cell Signaling), Phospho‐p44/42 MAPK (ERK1/2) (Thr202/Tyr204) (#4377; Cell Signaling) and p44/42 MAPK (ERK1/2) (#9102; Cell Signaling) were used for Western blotting.

[4] = tested on: MDA-MB-231 cells; test: Sphere formation assay; assay type: cell-based, human; details: MDA-MB-231 cells, with PTX3 treatment
Method: Note that 5 × 10^3 MDA‐MB‐231 cells were seeded in ultralow attachment plates (Corning) per well. Then, cultured in conditional medium containing the treatment of TGF‐β1, PTX3, PTX3NA, RI37, GI40, IgG1κ, PTX3 Ab‐10 or PTX3 Ab‐49 and the DMEM/F12 (Gibco) added with B27 (Invitrogen), 10 ng/ml bFGF (Peprotech) and 20 ng/ml EGF (Abcam). Number of spheres was calculated by microscope after 2 weeks.

[5] = tested on: MDA-MB-231 cells; test: Transwell migration and Matrigel invasion assays; assay type: cell-based, human; details: with PTX3 treatment, 18 h
From the text: In migration assay, MDA‐MB‐231 cells seeded in 8.0 μm pore polycarbonate membrane inserts (BD Biosciences) in 24‐well plates. In Matrigel invasion assay, inserts were pre‐coated with an appropriate amount of Matrigel first, and the same number of cells seeded on the Matrigel. After cells adhered on the inserts, serum‐free DMEM medium added in the upper wells. Serum‐free medium containing the treatments of TGF‐β1, PTX3, PTX3NA, PTX3/N, PTX3/C, RI37, GI40, AD9, GR9, IgG1κ, PTX3 Ab‐10 or PTX3 Ab‐49 were then mixed into the lower wells of the 24‐well plates. After incubating for 18 h, cells outside the insert were removed by wiping. The inside the inserts were then stained by 4′,6‐diamidino‐2‐phenylindol (DAPI). Fluorescence microscope was used for counting the total number of migrated cells with 200× magnification. Different from the experimental design for the MDA‐MB‐231 cells, the migrated 4T1‐Luc2 cells in the inside of the insert were detected by luciferase activity.

GI40: peptide, PTX3 amino acids 320–359 (GGGFDETLAFSGRLTGFNIWDSVLSNEEIRETGGAESCHI; also: biotin, position not given here)
suppressed: tumour growth and metastasis [1] | tumour growth and metastasis [2] | PTX3-induced AKT, NF-κB and ERK1/2 activity (signalling pathways) [3] | PTX3-induced sphere-forming ability (stemness) [4] | PTX3-induced migration and invasion [5]

RI37: peptide, PTX3 amino acids 200–236 (RPMRLESFSACIWVKATDVLNKTILFSYGTKRNPYEI; also: biotin, position not given here)
suppressed: tumour growth and metastasis [1] | tumour growth and metastasis [2] | PTX3-induced AKT, NF-κB and ERK1/2 activity (signalling pathways) [3] | PTX3-induced sphere-forming ability (stemness) [4] | PTX3-induced migration and invasion [5]
